Data published in PubChem BioAssay (NCI).
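Five concentrations, 48 hours, 96-well plates. TGI denotes the concentration required for complete inhibition of growth.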

tested on: M14 melanoma; test: NCI anticancer screen, dose series, 48 h

| SMILES | TGI [µM] |
| --- | --- |
| C=CCNC1=C2C[C@@H](C)C[C@@H](OC)[C@H](OC(=O)CCCCN)[C@H](C)/C=C(\C)[C@@H](OC(N)=O)[C@H](OC)/C=C\C=C(/C)C(=O)NC(=CC1=O)C2=O | 27 |
| C[C@@H]1C[C@H]2[C@@H]3CCC4=CC(=O)C=C[C@]4(C)[C@@]3(Cl)[C@@H](Cl)C[C@]2(C)[C@@]1(O)C(=O)COP(=O)(O)O | > 100 |
| O=Cc1cc2c(cc1-c1c(C=O)ccc3c1OCO3)OCO2 | > 10 |
| COC(=O)Cc1cc(O)c(C/C=C(\C)CC/C=C(\C)C(O)C(=O)C=C(C)C)cc1O (stereo not drawn) | 64.8 |
| COc1ccc(/C=C(/C(=O)c2ccc(Cl)cc2)N2C=CC=CC2=C(C#N)C#N)cc1OC | 11.4 |
| Nc1nc(Cl)c(N)c(NC23CC4CC(CC(C4)C2)C3)n1 | 3.02 |

tested on: MALME-3M melanoma; test: NCI anticancer screen, dose series, 48 h

| SMILES | TGI [µM] |
| --- | --- |
| CCOC(=O)C1(Cc2ccc3c(c2)CCC3)Cc2cc3c(cc2C1)CCC3 | > 100 |
| C=CCNC1=C2C[C@@H](C)C[C@@H](OC)[C@H](OC(=O)CCCCN)[C@H](C)/C=C(\C)[C@@H](OC(N)=O)[C@H](OC)/C=C\C=C(/C)C(=O)NC(=CC1=O)C2=O | 19.6 |
| C[C@@H]1C[C@H]2[C@@H]3CCC4=CC(=O)C=C[C@]4(C)[C@@]3(Cl)[C@@H](Cl)C[C@]2(C)[C@@]1(O)C(=O)COP(=O)(O)O | > 100 |
| O=Cc1cc2c(cc1-c1c(C=O)ccc3c1OCO3)OCO2 | > 10 |
| COC(=O)Cc1cc(O)c(C/C=C(\C)CC/C=C(\C)C(O)C(=O)C=C(C)C)cc1O (stereo not drawn) | 48.6 |
| COc1ccc(/C=C(/C(=O)c2ccc(Cl)cc2)N2C=CC=CC2=C(C#N)C#N)cc1OC | 2.91 |
| Nc1nc(Cl)c(N)c(NC23CC4CC(CC(C4)C2)C3)n1 | 10.1 |

tested on: MCF7 breast; test: NCI anticancer screen, dose series, 48 h

| SMILES | TGI [µM] |
| --- | --- |
| CCOC(=O)C1(Cc2ccc3c(c2)CCC3)Cc2cc3c(cc2C1)CCC3 | 40.4 |
| C=CCNC1=C2C[C@@H](C)C[C@@H](OC)[C@H](OC(=O)CCCCN)[C@H](C)/C=C(\C)[C@@H](OC(N)=O)[C@H](OC)/C=C\C=C(/C)C(=O)NC(=CC1=O)C2=O | 12.4 |
| C[C@@H]1C[C@H]2[C@@H]3CCC4=CC(=O)C=C[C@]4(C)[C@@]3(Cl)[C@@H](Cl)C[C@]2(C)[C@@]1(O)C(=O)COP(=O)(O)O | > 100 |
| O=Cc1cc2c(cc1-c1c(C=O)ccc3c1OCO3)OCO2 | > 10 |
| COC(=O)Cc1cc(O)c(C/C=C(\C)CC/C=C(\C)C(O)C(=O)C=C(C)C)cc1O (stereo not drawn) | 89.5 |
| COc1ccc(/C=C(/C(=O)c2ccc(Cl)cc2)N2C=CC=CC2=C(C#N)C#N)cc1OC | 16.9 |
| Nc1nc(Cl)c(N)c(NC23CC4CC(CC(C4)C2)C3)n1 | 3.78 |

tested on: MDA-MB-231 breast; test: NCI anticancer screen, dose series, 48 h

| SMILES | TGI [µM] |
| --- | --- |
| CCOC(=O)C1(Cc2ccc3c(c2)CCC3)Cc2cc3c(cc2C1)CCC3 | > 100 |
| C=CCNC1=C2C[C@@H](C)C[C@@H](OC)[C@H](OC(=O)CCCCN)[C@H](C)/C=C(\C)[C@@H](OC(N)=O)[C@H](OC)/C=C\C=C(/C)C(=O)NC(=CC1=O)C2=O | 27.7 |
| C[C@@H]1C[C@H]2[C@@H]3CCC4=CC(=O)C=C[C@]4(C)[C@@]3(Cl)[C@@H](Cl)C[C@]2(C)[C@@]1(O)C(=O)COP(=O)(O)O | > 100 |
| O=Cc1cc2c(cc1-c1c(C=O)ccc3c1OCO3)OCO2 | > 10 |
| COC(=O)Cc1cc(O)c(C/C=C(\C)CC/C=C(\C)C(O)C(=O)C=C(C)C)cc1O (stereo not drawn) | 78.3 |
| COc1ccc(/C=C(/C(=O)c2ccc(Cl)cc2)N2C=CC=CC2=C(C#N)C#N)cc1OC | 21.6 |
| Nc1nc(Cl)c(N)c(NC23CC4CC(CC(C4)C2)C3)n1 | 3.83 |

tested on: MDA-MB-435; test: NCI anticancer screen, dose series, 48 h

| SMILES | TGI [µM] |
| --- | --- |
| CCOC(=O)C1(Cc2ccc3c(c2)CCC3)Cc2cc3c(cc2C1)CCC3 | > 100 |
| C=CCNC1=C2C[C@@H](C)C[C@@H](OC)[C@H](OC(=O)CCCCN)[C@H](C)/C=C(\C)[C@@H](OC(N)=O)[C@H](OC)/C=C\C=C(/C)C(=O)NC(=CC1=O)C2=O | 25.6 |
| C[C@@H]1C[C@H]2[C@@H]3CCC4=CC(=O)C=C[C@]4(C)[C@@]3(Cl)[C@@H](Cl)C[C@]2(C)[C@@]1(O)C(=O)COP(=O)(O)O | > 100 |
| O=Cc1cc2c(cc1-c1c(C=O)ccc3c1OCO3)OCO2 | > 10 |
| COC(=O)Cc1cc(O)c(C/C=C(\C)CC/C=C(\C)C(O)C(=O)C=C(C)C)cc1O (stereo not drawn) | 45.4 |
| COc1ccc(/C=C(/C(=O)c2ccc(Cl)cc2)N2C=CC=CC2=C(C#N)C#N)cc1OC | 19.1 |
| Nc1nc(Cl)c(N)c(NC23CC4CC(CC(C4)C2)C3)n1 | 3.41 |

tested on: MDA-N; test: NCI anticancer screen, dose series, 48 h

| SMILES | TGI [µM] |
| --- | --- |
| CCOC(=O)C1(Cc2ccc3c(c2)CCC3)Cc2cc3c(cc2C1)CCC3 | > 100 |
| C=CCNC1=C2C[C@@H](C)C[C@@H](OC)[C@H](OC(=O)CCCCN)[C@H](C)/C=C(\C)[C@@H](OC(N)=O)[C@H](OC)/C=C\C=C(/C)C(=O)NC(=CC1=O)C2=O | 22 |
| C[C@@H]1C[C@H]2[C@@H]3CCC4=CC(=O)C=C[C@]4(C)[C@@]3(Cl)[C@@H](Cl)C[C@]2(C)[C@@]1(O)C(=O)COP(=O)(O)O | > 100 |
| O=Cc1cc2c(cc1-c1c(C=O)ccc3c1OCO3)OCO2 | > 10 |
| COC(=O)Cc1cc(O)c(C/C=C(\C)CC/C=C(\C)C(O)C(=O)C=C(C)C)cc1O (stereo not drawn) | > 100 |
| COc1ccc(/C=C(/C(=O)c2ccc(Cl)cc2)N2C=CC=CC2=C(C#N)C#N)cc1OC | 20.1 |
| Nc1nc(Cl)c(N)c(NC23CC4CC(CC(C4)C2)C3)n1 | 3.31 |

tested on: MOLT-4 leukemia; test: NCI anticancer screen, dose series, 48 h

| SMILES | TGI [µM] |
| --- | --- |
| CCOC(=O)C1(Cc2ccc3c(c2)CCC3)Cc2cc3c(cc2C1)CCC3 | 33 |
| C=CCNC1=C2C[C@@H](C)C[C@@H](OC)[C@H](OC(=O)CCCCN)[C@H](C)/C=C(\C)[C@@H](OC(N)=O)[C@H](OC)/C=C\C=C(/C)C(=O)NC(=CC1=O)C2=O | 52.9 |
| C[C@@H]1C[C@H]2[C@@H]3CCC4=CC(=O)C=C[C@]4(C)[C@@]3(Cl)[C@@H](Cl)C[C@]2(C)[C@@]1(O)C(=O)COP(=O)(O)O | > 100 |
| O=Cc1cc2c(cc1-c1c(C=O)ccc3c1OCO3)OCO2 | > 10 |
| COC(=O)Cc1cc(O)c(C/C=C(\C)CC/C=C(\C)C(O)C(=O)C=C(C)C)cc1O (stereo not drawn) | 36.9 |
| COc1ccc(/C=C(/C(=O)c2ccc(Cl)cc2)N2C=CC=CC2=C(C#N)C#N)cc1OC | 4.64 |
| Nc1nc(Cl)c(N)c(NC23CC4CC(CC(C4)C2)C3)n1 | 4.81 |
